In test [1] the test system is Staphylococcus aureus NCTC 6571. Description: Lethal photosensitisation of S. aureus by TBO-tiopronin-gold nanoparticle conjugate, white light, viable counting. To be noted: irradiated with white light for any length of time (15, 30, 45 minutes). In kind it is cell-based.
Test [2] shares this test system. The test can be described thus: Lethal photosensitisation of S. aureus by gold nanoparticle-photosensitiser mixtures under white light, viable counting. Type of test: cell-based. To be noted: preliminary experiments, 30 minutes light exposure. How it is done: Gold nanoparticles (2.0 nm diameter; British Biocell International) in water (15×10^13 particles per ml) were mixed with an equal volume of an aqueous solution of toluidine blue O (40 μM) and left at room temperature for 15 minutes. 100 μl of the gold-TB solution was added to 100 μl of a suspension of Staphylococcus aureus NCTC 6571 in phosphate buffered saline (PBS) and this was irradiated with white light from a fluorescent white lamp for 10 minutes. Controls consisted of:
(i) TB (final concentration=10 μM) and bacteria, irradiated for the same period of time,
(ii) nanogold (diluted 1:1 with water) and bacteria, irradiated for the same period of time,
(iii) bacteria without TB or nanogold, not irradiated (“control”).
After irradiation, the number of surviving bacteria was determined by viable counting. […] Note that the TB concentration and light energy dose used were designed to give sub-optimal kills so that differences in efficacy of the TB and the TB-nanogold could be discerned. Preliminary experiments using 30 minutes light exposure achieved total kills of the bacterial suspensions in both cases.
Gold nanoparticles of approximately 15 nm in diameter (batches NN1 and NN2 above) were mixed with an equal volume of aqueous toluidine blue O (TB) and left at room temperature for 15 minutes. TB was used at a final concentration of 1, 5, 10, 20 or 50 μM. […]

SMILES strings stand for the structures.

`Cc1cc2nc3ccc(N(C)C)cc3[s+]c2cc1N.[Cl-]` [TB only, toluidine blue O]: in test [1], the “antibacterial effect (in words)” value is on record as “no effect”. Moreover, the “kill of the bacterial suspensions (in words)” value in test [2] is reported as “total kills”.

The record behind these values is patent US8580309B2, “Antimicrobial mixtures” (priority 2006, dated 2013).
